pIC50: −log10 of the molar value.
Tests used:
U87MG cells = experiment: Cellular assay for IDH1m inhibitors: inhibition of 2-HG production (LC-MS, 48 hours) in U87MG cells; type: cell-based; settings: Homo sapiens, U-87 MG, inhibition of 2-HG production, U87R132H cells; read-out: U87R132H IC50
Method in brief: (§1)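 Each cell line is plated at 5000 cells/well in DMEM with 10% FBS and left overnight at 37 °C. Test compounds are then added for 48 h, after which 2-HG in the medium is determined by LC-MS; IC50 reflects 50% reduction compared with control.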

IDH1 R132H = IDH1 R132H (Homo sapiens, UniProt O75874, R132H); experiment: Assay for IDH1 R132H inhibitors (NADPH/aKG, resazurin detection); type: biochemical; settings: enzyme assay of Example 12; read-out: IDH1R132H IC50
Method in brief: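 Compound added to substrate mix (8 uM NADPH, 2 mM aKG), then enzyme mix (0.2 μg/ml IDH1 R132H); 50 min RT in 20 mM Tris pH 7.5, 150 mM NaCl, 10 mM MgCl2, 0.03% BSA. Resazurin detection mix (30 μM) 5 min RT; resorufin fluorescence Ex544/Em590.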

HT1080 cells = experiment: Cellular assay for IDH1m inhibitors: inhibition of 2-HG production (LC-MS, 48 hours) in HT1080 cells; type: cell-based; settings: Homo sapiens, HT-1080; inhibition of 2-HG production, HT1080 cells; read-out: HT1080 IC50
Method in brief: as §1

Chain of IDH1 R132H (O75874 whole entry R132H): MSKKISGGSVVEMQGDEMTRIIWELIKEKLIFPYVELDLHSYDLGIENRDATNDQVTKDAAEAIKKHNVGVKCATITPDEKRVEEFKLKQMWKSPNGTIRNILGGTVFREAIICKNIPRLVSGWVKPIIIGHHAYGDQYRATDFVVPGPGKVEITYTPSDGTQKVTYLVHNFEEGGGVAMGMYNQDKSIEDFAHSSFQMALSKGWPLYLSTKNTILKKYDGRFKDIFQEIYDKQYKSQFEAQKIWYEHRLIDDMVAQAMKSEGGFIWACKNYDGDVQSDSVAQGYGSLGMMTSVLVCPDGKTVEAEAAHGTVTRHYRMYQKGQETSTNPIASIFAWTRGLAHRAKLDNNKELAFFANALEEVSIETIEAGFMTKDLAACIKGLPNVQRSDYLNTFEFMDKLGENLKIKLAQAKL

pIC50 (U87MG cells) | pIC50 (IDH1 R132H) | pIC50 (HT1080 cells) | SMILES
5.00 to 6.00 | 6.00 to 6.30 | 5.00 to 6.00 | COCCC(=O)N1CCN(c2nc(C3CC3)c(-c3ccnc(Cl)c3)cc2C#N)C[C@H]1C [Compound 401, (R)-2′-chloro-2-cyclopropyl-6-(4-(3-methoxypropanoyl)-3-methylpiperazin-1-yl)-3,4′-bipyridine-5-carbonitrile]
> 6.30 | > 6.30 | > 6.30 | C=Cc1ccnc(Nc2cc(C#N)c(N3CCN(C(=O)CCO)[C@H](C4CC4)C3)nc2C2CC2)c1 [Compound 756, (R)-6-cyclopropyl-2-(3-cyclopropyl-4-(3-hydroxypropanoyl)piperazin-1-yl)-5-((4-vinylpyridin-2-yl)amino)nicotinonitrile]
> 6.30 | > 6.30 | > 6.30 | C=Cc1cnc2c(-c3cc(C#N)c(N4CCN(C(=O)CCO)[C@H](C)C4)nc3C3CC3)cccc2n1 [Compound 618, (R)-6-cyclopropyl-2-(4-(3-hydroxypropanoyl)-3-methylpiperazin-1-yl)-5-(2-vinylquinoxalin-5-yl)nicotinonitrile]
6.00 to 6.30 | > 6.30 | 6.00 to 6.30 | COCCC(=O)N1CCN(c2nc(C3CC3)c(-c3ccc4nccn4c3)cc2C#N)C[C@H]1C [Compound 436, (R)-6-cyclopropyl-5-imidazo[1,2-a]pyridin-6-yl-2-[4-(3-methoxy-propionyl)-3-methyl-piperazin-1-yl]-nicotinonitrile]
5.00 to 6.00 | > 6.30 | 5.00 to 6.00 | COCCC(=O)N1CCN(c2nc(C3CC3)c(OCc3ccc(CO)cc3)cc2C#N)C[C@H]1C [Compound 301, (R)-6-cyclopropyl-5-(4-(hydroxymethyl)benzyloxy)-2-(4-(3-methoxypropanoyl)-3-methylpiperazin-1-yl)nicotinonitrile]
> 6.30 | > 6.30 | > 6.30 | C=Cc1cc(-c2cc(C#N)c(N3CCN(C(=O)COC)[C@H](C(C)C)C3)nc2C2CC2)ccn1 [Compound 726, (R)-2-cyclopropyl-6-(3-isopropyl-4-(2-methoxyacetyl)piperazin-1-yl)-2′-vinyl-3,4′-bipyridine-5-carbonitrile]
5.00 to 6.00 | 6.00 to 6.30 | 5.00 to 6.00 | COCCC(=O)N1CCN(c2nc(C3CC3)c(-c3cccc(NC(=O)[C@H](C)Cl)c3)cc2C#N)C[C@H]1C [Compound 447, (S)-2-chloro-N-(3-(5-cyano-2-cyclopropyl-6-((R)-4-(3-methoxypropanoyl)-3-methylpiperazin-1-yl)pyridin-3-yl)phenyl)propanamide]
> 6.30 | > 6.30 | > 6.30 | C=Cc1ccnc(Nc2cc(C#N)c(N3CCN(C(=O)CCC4CCO4)[C@H](C4CC4)C3)nc2C2CC2)c1 (stereo partly drawn) [Compound 812, 6-cyclopropyl-2-((3R)-3-cyclopropyl-4-(3-(oxetan-2-yl)propanoyl)piperazin-1-yl)-5-((4-vinylpyridin-2-yl)amino)nicotinonitrile]
> 6.30 | > 6.30 | > 6.30 | COCCC(=O)N1CCN(c2nc(C3CC3)c(-c3cccc4cccnc34)cc2C#N)C[C@H]1C [Compound 342, (R)-6-cyclopropyl-2-(4-(3-methoxypropanoyl)-3-methylpiperazin-1-yl)-5-(quinolin-8-yl)nicotinonitrile]
> 6.30 | > 6.30 | > 6.30 | C=Cc1ccnc(Nc2cc(C#N)c(N3CCN(C(=O)CC4CCCO4)[C@H](C4CC4)C3)nc2C2CC2)c1 (stereo partly drawn) [Compound 813, 6-cyclopropyl-2-((3R)-3-cyclopropyl-4-(2-(tetrahydrofuran-2-yl)acetyl)piperazin-1-yl)-5-((4-vinylpyridin-2-yl)amino)nicotinonitrile]
> 6.30 | > 6.30 | > 6.30 | C=Cc1cc(Oc2cc(C#N)c(N3CCN(C(=O)CCOC)[C@H](C)C3)nc2C2CC2)ccn1 [Compound 667]
> 6.30 | > 6.30 | > 6.30 | C=Cc1cc(-c2cc(C#N)c(N3CCN(C(=O)CC(F)(F)F)[C@H](C4CC4)C3)nc2C2CC2)ccn1 [Compound 498, (R)-2-cyclopropyl-6-(3-cyclopropyl-4-(3,3,3-trifluoropropanoyl)piperazin-1-yl)-2′-vinyl-3,4′-bipyridine-5-carbonitrile]
> 6.30 | > 6.30 | > 6.30 | C=Cc1cnc2c(-c3cc(C#N)c(N4CCN(C(=O)CCOC)[C@H](C)C4)nc3C3CC3)cccc2n1 [Compound 579, (R)-6-cyclopropyl-2-(4-(3-methoxypropanoyl)-3-methylpiperazin-1-yl)-5-(2-vinylquinoxalin-5-yl)nicotinonitrile]
> 6.30 | > 6.30 | > 6.30 | C=Cc1cc(N(C)c2cc(C#N)c(N3CCN(C(=O)CCO)[C@H](C4CC4)C3)nc2C2CC2)ccn1 [Compound 730, (R)-6-cyclopropyl-2-(3-cyclopropyl-4-(3-hydroxypropanoyl)piperazin-1-yl)-5-(methyl(2-vinylpyridin-4-yl)amino)nicotinonitrile]
> 6.30 | > 6.30 | > 6.30 | C=Cc1cc(-c2cc(C#N)c(N3CCN(C(=O)CCO)[C@H](C)C3)nc2C2CC2)c2ccccc2n1 [Compound 591, (R)-6-cyclopropyl-2-(4-(3-hydroxypropanoyl)-3-methylpiperazin-1-yl)-5-(2-vinylquinolin-4-yl)nicotinonitrile]
6.00 to 6.30 | > 6.30 | 5.00 to 6.00 | COCCC(=O)N1CCN(c2nc(C3CC3)c(OCc3cccnc3)cc2C#N)C[C@H]1C [Compound 304, (R)-6-cyclopropyl-2-(4-(3-methoxypropanoyl)-3-methylpiperazin-1-yl)-5-(pyridin-3-ylmethoxy)nicotinonitrile]
> 6.30 | > 6.30 | > 6.30 | C=Cc1cc(-c2cc(C#N)c(N3CCN(C(=O)C4CC4)[C@H](C4CC4)C3)nc2C2CC2)c2ccccc2n1 [Compound 542, (R)-2-(4-(cyclopropanecarbonyl)-3-cyclopropylpiperazin-1-yl)-6-cyclopropyl-5-(2-vinylquinolin-4-yl)nicotinonitrile]
6.00 to 6.30 | > 6.30 | 5.00 to 6.00 | CCOC(=O)N1CCN(c2cc(C#N)c(N3CCN(C(=O)CCOC)[C@H](C)C3)nc2C2CC2)CC1 [Compound 376, (R)-ethyl 4-(5-cyano-2-cyclopropyl-6-(4-(3-methoxypropanoyl)-3-methylpiperazin-1-yl)pyridin-3-yl)piperazine-1-carboxylate]
> 6.30 | > 6.30 | > 6.30 | C=Cc1cc(-c2cc(C#N)c(N3CCN(C(=O)C[C@H]4CCO4)[C@H](C)C3)nc2C2CC2)ccn1 [Compound 648, 2-cyclopropyl-6-((R)-3-methyl-4-(2-((R)-oxetan-2-yl)acetyl)piperazin-1-yl)-2′-vinyl-[3,4′-bipyridine]-5-carbonitrile]
6.00 to 6.30 | > 6.30 | 6.00 to 6.30 | Cc1cc2c(-c3cc(C#N)c(N4CCN(C(=O)C5CC5)[C@H](C5CC5)C4)nc3C3CC3)cccc2cn1 [Compound 458, (R)-2-(4-(cyclopropanecarbonyl)-3-cyclopropylpiperazin-1-yl)-6-cyclopropyl-5-(3-methylisoquinolin-5-yl)nicotinonitrile]
> 6.30 | > 6.30 | > 6.30 | C=Cc1cc(N(C)c2cc(C#N)c(N3CCN(C(=O)CCOC)[C@H](C)C3)nc2C2CC2)ccn1 [Compound 690, (R)-6-cyclopropyl-2-(4-(3-methoxypropanoyl)-3-methylpiperazin-1-yl)-5-(methyl(2-vinylpyridin-4-yl)amino)nicotinonitrile]
> 6.30 | > 6.30 | > 6.30 | C=CC(=O)N(C)c1cccc(-c2cc(C#N)c(N3CCN(C(=O)CCOC)[C@H](C)C3)nc2C2CC2)c1 [Compound 427]
6.00 to 6.30 | > 6.30 | 5.00 to 6.00 | COCCC(=O)N1CCN(c2nc(C3CC3)c(-c3cccc4cc[nH]c34)cc2C#N)C[C@H]1C [Compound 373, (R)-6-cyclopropyl-5-(1H-indol-7-yl)-2-[4-(3-methoxy-propionyl)-3-methyl-piperazin-1-yl]-nicotinonitrile]
5.00 to 6.00 | > 6.30 | 5.00 to 6.00 | COCCC(=O)N1CCN(c2nc(C3CC3)c(-c3ccc(F)c(Cl)c3)c(C)c2C#N)C[C@H]1C [Compound 271, (R)-5-(3-chloro-4-fluorophenyl)-6-cyclopropyl-2-(4-(3-methoxypropanoyl)-3-methylpiperazin-1-yl)-4-methylnicotinonitrile]
> 6.30 | > 6.30 | > 6.30 | C=Cc1cc(-c2cc(C#N)c(N3CCN(C(=O)C4CC4)[C@H](C4CC4)C3)nc2C2CC2)c2ccncc2n1 [Compound 689, (R)-2-(4-(cyclopropanecarbonyl)-3-cyclopropylpiperazin-1-yl)-6-cyclopropyl-5-(2-vinyl-1,7-naphthyridin-4-yl)nicotinonitrile]
> 6.30 | > 6.30 | > 6.30 | C=CC(=O)Nc1cccc(-c2cc(C#N)c(N3CCN(C(=O)CCOC)[C@H](C)C3)nc2C2CC2)c1 [Compound 343, (R)—N-(3-(5-cyano-2-cyclopropyl-6-(4-(3-methoxypropanoyl)-3-methylpiperazin-1-yl)pyridin-3-yl)phenyl)acrylamide]

From patent publication US9856279B2 (AGIOS PHARMACEUTICALS, INC, priority 2011, dated 2018)
